Key:
[1] = biological target: T1, MAO-A (Homo sapiens, UniProt P21397); experiment: Decrease of plasma DHPG in patients (HPLC analysis of MAO-A inhibition); type: in vivo
T1 construct: from tissue; host or cells: patients in vivo; DHPG measured in plasma
T1 sequence (P21397 1-527): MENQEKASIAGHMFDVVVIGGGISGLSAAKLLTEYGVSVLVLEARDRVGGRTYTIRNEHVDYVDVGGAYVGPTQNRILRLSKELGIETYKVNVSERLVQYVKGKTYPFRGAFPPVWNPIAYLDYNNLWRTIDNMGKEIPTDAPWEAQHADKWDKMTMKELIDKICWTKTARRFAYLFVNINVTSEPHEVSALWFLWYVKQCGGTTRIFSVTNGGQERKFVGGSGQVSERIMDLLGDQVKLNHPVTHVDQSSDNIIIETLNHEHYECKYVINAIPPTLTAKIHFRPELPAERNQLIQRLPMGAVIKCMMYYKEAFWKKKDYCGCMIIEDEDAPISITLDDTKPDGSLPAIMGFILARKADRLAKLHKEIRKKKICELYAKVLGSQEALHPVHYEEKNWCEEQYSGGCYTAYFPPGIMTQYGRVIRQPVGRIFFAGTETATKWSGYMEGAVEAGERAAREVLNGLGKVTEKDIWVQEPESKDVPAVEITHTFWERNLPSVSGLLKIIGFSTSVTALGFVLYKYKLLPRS
Experimental: 8 patients, 7 female and 1 male, ages 62-81 with a median age of 68 and above with diagnosis of probable Alzheimer's disease according to DSM-IV (290.00 or 290.10) and NINCDS-ADRDA criteria were administered ladostigil tartrate according to the following schedule:
Decrease of 3,4-dihydroxyphenylglycol (“DHPG”) in plasma is indicative of monoamine oxidase inhibition, especially in the brain. DHPG plasma concentrations were measured in 6 of the aforementioned patients at baseline and at termination analysis, using HPLC equipped with an electrochemical detector.
The decrease in DHPG concentration in the six patients was determined. The average decrease in DHPG concentration was determined to be 57% with a standard deviation of 29.

[2] = clinical; conditions: human, in vivo; for Cmax / AUC / AUC(0-t): 100 mg, after ladostigil tartrate 100 mg twice daily; for AUC: AUC (M)
[3] = system: Cholinesterase; experiment: Cholinesterase inhibition in patients at pre-dose; type: in vivo, human; conditions: at maintenance and at termination analyses
Experimental: 8 patients, 7 female and 1 male, ages 62-81 with a median age of 68 and above with diagnosis of probable Alzheimer's disease according to DSM-IV (290.00 or 290.10) and NINCDS-ADRDA criteria were administered ladostigil tartrate according to the following schedule: […]

Question: What does the source list for `C#CCN[C@@H]1CCc2ccc(OC(=O)N(C)CC)cc21` [ladostigil, R(+)-6-(N-methyl, N-ethyl-carbamoyloxy)-N′-propargyl-1-aminoindan]?
Answer: DHPG (T) ([1]; Patient 1, termination analysis Week 9 vs baseline): −63%; DHPG (T) ([1]; Patient 2, termination analysis Week 9 vs baseline): −86%; DHPG (T) ([1]; Patient 5, termination analysis Week 9 vs baseline): >−79%; DHPG (T) ([1]; Patient 6, termination analysis Week 9 vs baseline): −73%; DHPG (T) ([1]; Patient 7, termination analysis Week 9 vs baseline): −30%; DHPG (T) ([1]; Patient 8, termination analysis Week 9 vs baseline): −13%; half-life ([2]; both): 1.08 h; Cmax ([2]; both, Cmax (M), mean, mean of patients, maintenance analysis Week 4): 2.02e-06 M; Cmax ([2]; both, Cmax (T), mean, mean of patients, termination analysis Week 9): 1.88e-06 M; AUC ([2]; Patient 1, maintenance analysis Week 4): 314 ng·h/mL; AUC ([2]; Patient 2, maintenance analysis Week 4): 589 ng·h/mL; AUC ([2]; Patient 3, maintenance analysis Week 4): 1000 ng·h/mL; AUC ([2]; Patient 4, maintenance analysis Week 4): 927 ng·h/mL; AUC ([2]; Patient 5, maintenance analysis Week 4): 436 ng·h/mL; AUC ([2]; Patient 6, maintenance analysis Week 4): 551 ng·h/mL; AUC ([2]; Patient 7, maintenance analysis Week 4): 52 ng·h/mL; AUC ([2]; Patient 8, maintenance analysis Week 4): 500 ng·h/mL; AUC(0-t) ([2]; Patient 1, termination analysis Week 9): 246 ng·h/mL; AUC(0-t) ([2]; Patient 2, termination analysis Week 9): 2300 ng·h/mL; AUC(0-t) ([2]; Patient 3, termination analysis Week 9): 1450 ng·h/mL; AUC(0-t) ([2]; Patient 4, termination analysis Week 9): 482 ng·h/mL; AUC(0-t) ([2]; Patient 5, termination analysis Week 9): 398 ng·h/mL; AUC(0-t) ([2]; Patient 6, termination analysis Week 9): 901 ng·h/mL; AUC(0-t) ([2]; Patient 7, termination analysis Week 9): 118 ng·h/mL; AUC(0-t) ([2]; Patient 8, termination analysis Week 9): 350 ng·h/mL; Cmax ([2]; Cmax (M), Patient 1, maintenance analysis Week 4): 1.1e-06 M; Cmax ([2]; Cmax (M), Patient 2, maintenance analysis Week 4): 1.2e-06 M; Cmax ([2]; Cmax (M), Patient 3, maintenance analysis Week 4): 3.5e-06 M; Cmax ([2]; Cmax (M), Patient 4, maintenance analysis Week 4): 3.9e-06 M; Cmax ([2]; Cmax (M), Patient 5, maintenance analysis Week 4): 1.4e-06 M; Cmax ([2]; Cmax (M), Patient 6, maintenance analysis Week 4): 1.5e-06 M; Cmax ([2]; Cmax (M), Patient 7, maintenance analysis Week 4): 2e-07 M; Cmax ([2]; Cmax (M), Patient 8, maintenance analysis Week 4): 1.7e-06 M; Cmax ([2]; Cmax (T), Patient 1, termination analysis Week 9): 7e-07 M; Cmax ([2]; Cmax (T), Patient 2, termination analysis Week 9): 3.8e-06 M; Cmax ([2]; Cmax (T), Patient 3, termination analysis Week 9): 3.9e-06 M; Cmax ([2]; Cmax (T), Patient 4, termination analysis Week 9): 1.6e-06 M; Cmax ([2]; Cmax (T), Patient 5, termination analysis Week 9): 1e-06 M; Cmax ([2]; Cmax (T), Patient 6, termination analysis Week 9): 2.5e-06 M; Cmax ([2]; Cmax (T), Patient 7, termination analysis Week 9): 4e-07 M; Cmax ([2]; Cmax (T), Patient 8, termination analysis Week 9): 1.3e-06 M; Cholinesterase inhibition at pre-dose, in words [3]: evident
